Five substances from patent US5607914A, “Synthetic antimicrobial peptides” (Pioneer Hi-Bred International, Inc., priority 1994, dated 1997) can be followed below.

For one experiment, the system named is F. moniliforme. As to the kind of experiment: Antifungal activity of synthetic peptides (MIC/MCIC). In kind it is cell-based.
The next experiment concerns F. graminearum. In kind it is cell-based.
Another experiment deals with A. flavus. The experiment is described as follows: Antifungal activity of synthetic peptides (MIC/MCIC). In kind it is cell-based.

Where two headings read alike, the source gives them in different places. No end group written: not given here.

Regarding “Cecropin A (KWKLFKKIEKVGQNIRDGIIKAGPAVAVVGQATQIAK; ends and bridges not checked; UniProt P01507 27-63, looked up)”, the MCIC in the experiment with F. moniliforme is over 80; in the experiment with F. graminearum (F. graminearum, score of 3 or greater (≥80% growth inhibition)), over 80 µg/mL; in the experiment with A. flavus, over 80. Further, the MIC in the experiment with F. moniliforme worked out at 80 µg/mL; against F. graminearum (F. graminearum, score of 1 or greater (25% growth inhibition)) it was 60 µg/mL; against A. flavus, 80 µg/mL.
Take KLKKALRWLARHAK [Peptide 20]: the MIC against C. nebraskense, against E. coli and in the experiment on A. tumefaciens was 3.13 μg per ml each time.
For the substance KWKKALRALARHLK [Peptide 19], the MIC came out at 3.13 μg per ml in the experiment on C. nebraskense, 6.25 μg per ml against E. coli and 6.25 μg per ml with A. tumefaciens.
For the substance Mastoparan, the MIC in the experiment with F. moniliforme (F. moniliforme, score of 1 or greater (25% growth inhibition)) turned out to be 2.5 µg/mL; with F. graminearum it was 5 µg/mL; against A. flavus (A. flavus, concentration achieving a score of 1 or greater (25% growth inhibition)), 20 µg/mL. In addition, the MCIC in the experiment with F. moniliforme (F. moniliforme, score of 3 or greater (≥80% growth inhibition)) was determined as 10 µg/mL; in the experiment on F. graminearum it was 10; in the experiment with A. flavus (A. flavus, concentration achieving a score of 3 or greater (≥80% growth inhibition)) it was 40 µg/mL.
Take RRIYRAIRHIPRRIR [Peptide 22]: the MIC in the experiment with C. nebraskense (C. nebraskense) turned out to be 12.5 μg per ml; in the experiment with E. coli (E. coli) it was 3.13 μg per ml.
